This passage reports IC50 results from US11046699B2, “Pyrazolo-pyrimidin-amino-cycloalkyl compounds and their therapeutic uses” (RAPT THERAPEUTICS, INC., priority 2018, dated 2021).

The assay concerns the target GCN2 (Homo sapiens, UniProt Q9P2K8). Nature of the assay: GCN2 enzymatic endpoint assay: phosphorylation of GFP-eIF2α measured by TR-FRET (Lanthascreen). The class given is biochemical. The following applies: tested as described in Example 77; compound and/or hydrochloride, dihydrochloride or trifluoroacetic acid salt; read-out: IC 50 Activity. The method, then:
The Enzymatic assay was run as an endpoint assay to quantify the activity of the serine/threonine GCN2 kinase by way of measuring phosphorylation of its natural substrate, eiF2α.
The enzymatic reaction was initiated by incubating with 2 μM ATP and 80 nM of GFP labeled eiF2a substrate at room temperature and then stopped after 90 minutes with EDTA. The amount of phosphorylated eIF2α is determined by TR-FRET (Lanthascreen). A terbium labeled antibody associates with the phosphorylated substrate resulting in an increased TR-FRET value. Activity was calculated as the ratio of the acceptor (fluorescein) signal at 520 nm wavelength to the donor (terbium) signal 495 nm. The amount of antibody that is bound to the tracer is directly proportional to the amount of phosphorylated substrate present, and in this manner, kinase activity can be detected and measured by an increase in the TR-FRET value.
Compound addition by D300
5 μL enzyme solution in assay buffer
5 μL substrate/ATP mixture in assay buffer
5 μL stop/detection mix in antibody dilution buffer
(In TR-FRET formats the signal depends on donor and acceptor labels being close together.)

Sequence of GCN2 (Q9P2K8 whole entry): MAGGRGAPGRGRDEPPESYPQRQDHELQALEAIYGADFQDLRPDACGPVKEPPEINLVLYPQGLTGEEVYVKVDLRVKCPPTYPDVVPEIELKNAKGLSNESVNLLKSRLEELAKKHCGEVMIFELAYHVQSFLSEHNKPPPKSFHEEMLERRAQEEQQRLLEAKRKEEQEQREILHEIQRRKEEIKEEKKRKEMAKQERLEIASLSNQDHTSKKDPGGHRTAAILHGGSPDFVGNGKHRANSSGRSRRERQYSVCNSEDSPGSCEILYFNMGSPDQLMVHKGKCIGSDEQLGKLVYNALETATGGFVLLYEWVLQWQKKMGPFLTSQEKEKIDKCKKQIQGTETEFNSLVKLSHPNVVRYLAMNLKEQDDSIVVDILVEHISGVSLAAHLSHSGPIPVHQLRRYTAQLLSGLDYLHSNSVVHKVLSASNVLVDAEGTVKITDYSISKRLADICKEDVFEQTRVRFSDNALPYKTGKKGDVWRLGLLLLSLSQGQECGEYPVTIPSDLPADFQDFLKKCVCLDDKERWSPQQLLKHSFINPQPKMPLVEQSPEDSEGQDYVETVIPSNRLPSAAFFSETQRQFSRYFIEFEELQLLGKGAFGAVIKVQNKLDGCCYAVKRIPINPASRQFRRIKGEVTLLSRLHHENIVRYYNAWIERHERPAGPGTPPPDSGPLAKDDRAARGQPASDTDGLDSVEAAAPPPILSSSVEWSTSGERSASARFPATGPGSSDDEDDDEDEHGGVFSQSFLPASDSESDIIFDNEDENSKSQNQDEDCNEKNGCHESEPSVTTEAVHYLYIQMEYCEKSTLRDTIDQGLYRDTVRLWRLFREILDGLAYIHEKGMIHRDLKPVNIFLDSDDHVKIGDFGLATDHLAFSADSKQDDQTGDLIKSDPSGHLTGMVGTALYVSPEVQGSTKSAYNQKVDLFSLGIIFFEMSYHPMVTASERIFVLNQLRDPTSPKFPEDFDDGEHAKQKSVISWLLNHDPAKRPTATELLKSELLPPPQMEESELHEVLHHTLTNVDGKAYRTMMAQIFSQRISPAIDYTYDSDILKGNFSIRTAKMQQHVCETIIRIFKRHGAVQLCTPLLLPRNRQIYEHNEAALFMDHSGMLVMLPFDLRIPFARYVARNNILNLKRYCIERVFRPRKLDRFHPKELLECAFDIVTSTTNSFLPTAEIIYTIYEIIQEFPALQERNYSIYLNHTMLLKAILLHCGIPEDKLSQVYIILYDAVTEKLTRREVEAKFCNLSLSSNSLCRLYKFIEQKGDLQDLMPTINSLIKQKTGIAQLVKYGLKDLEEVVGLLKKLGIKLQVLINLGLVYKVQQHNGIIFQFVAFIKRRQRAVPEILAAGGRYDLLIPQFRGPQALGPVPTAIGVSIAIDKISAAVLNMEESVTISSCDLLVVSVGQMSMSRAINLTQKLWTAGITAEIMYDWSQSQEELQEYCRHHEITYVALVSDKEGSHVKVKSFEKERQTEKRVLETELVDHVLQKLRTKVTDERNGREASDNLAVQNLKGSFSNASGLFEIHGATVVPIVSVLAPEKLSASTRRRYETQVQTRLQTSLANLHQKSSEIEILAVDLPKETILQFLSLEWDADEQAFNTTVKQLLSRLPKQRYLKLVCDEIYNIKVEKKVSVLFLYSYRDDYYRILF

With `O=C1CN(C(=O)[C@@H]2CC[C@@H](Nc3ncc4c(Br)nn(-c5cc(F)c6ncccc6c5)c4n3)C2)CN1`, the IC50 lay in the range of 25 to 200 nM.

As for `N#Cc1cc(-n2nc(Br)c3cnc(N[C@@H]4CC[C@@H](C(=O)N5CCS(=N)(=O)CC5)C4)nc32)cc2cccnc12`, the IC50 is below 25 nM.

Consider `Cc1nnc(-c2ccc(-n3nc(Br)c4cnc(N[C@@H]5CC[C@@H](NC(=O)C6CNC6)C5)nc43)cc2)s1`, for which the IC50 lay in the range of 25 to 200 nM.

Turning to `CNC(=O)[C@]1(C)CC[C@@H](Nc2ncc3c(Br)nn(-c4cc(Cl)cc(CN=S(C)(=O)O)c4)c3n2)C1`, the IC50 was 25 to 200 nM.

Consider `CNC(=O)[C@]1(C)CC[C@@H](Nc2ncc3c(Br)nn(-c4ccc5nc(N)ncc5c4)c3n2)C1`, for which the IC50 lay within 25 to 200 nM.

As for `CNC(=O)[C@]1(C)CC[C@@H](Nc2ncc3c(Br)nn(-c4cc(Cl)cc([C@@H](C)N)c4)c3n2)C1`, the IC50 was below 25 nM.

As to `CNC(=O)[C@]1(C)CC[C@@H](Nc2ncc3c(Br)nn(-c4cc(Cl)c(F)c(CN)c4)c3n2)C1`, the IC50 was 25 to 200 nM.

For `CNC(=O)[C@]1(C)CC[C@@H](Nc2ncc3c(Br)nn(-c4cc(C#N)cc(CN)c4)c3n2)C1`, the IC50 lay in the range of 25 to 200 nM.

As for `CNC(=O)[C@]1(C)CC[C@@H](Nc2ncc3c(Br)nn(-c4cc(CCN)c5cnccc5c4)c3n2)C1`, the IC50 was below 25 nM.

For the compound `CNC(=O)[C@]1(C(C)C)CC[C@@H](Nc2ncc3c(Br)nn(-c4cc([C@@H](C)N)c5nccnc5c4)c3n2)C1`, the IC50 is below 25 nM.

Turning to `CNC(=O)[C@]1(C)CC[C@@H](Nc2ncc3c(Br)nn(-c4ccc5c(c4)COC5=O)c3n2)C1`, the IC50 was in the range of 25 to 200 nM.

On to `CNC(=O)[C@]1(C)CC[C@@H](Nc2ncc3c(Br)nn(-c4ccc5nc(N(C)C)ncc5c4)c3n2)C1`, for which the IC50 is 25 to 200 nM.

Consider `COc1cc(-n2nc(Br)c3cnc(N[C@@H]4CC[C@@H](C(=O)NCCS(C)(=O)=O)C4)nc32)ccn1`, for which the IC50 was in the range of 500 to 1000 nM.

Regarding `CNC(=O)[C@]1(C)CC[C@@H](Nc2ncc3c(Br)nn(-c4cc(Cl)c(F)c(CNS(C)(=O)=O)c4)c3n2)C1`, the IC50 was 25 to 200 nM.

Regarding `CNC(=O)[C@]1(C)CC[C@@H](Nc2ncc3c(Br)nn(-c4cc(Cl)c(F)c(CS(C)(=O)=O)c4)c3n2)C1`, the IC50 lay in the range of 25 to 200 nM.

For `CNC(=O)[C@]1(C)CC[C@@H](Nc2ncc3c(Br)nn(-c4cc(Cl)cc(CCNS(C)(=O)=O)c4)c3n2)C1`, the IC50 was in the range of 25 to 200 nM.

As to `CNC(=O)[C@]1(C)CC[C@@H](Nc2ncc3c(Br)nn(-c4cc(Cl)cc(CCC#N)c4)c3n2)C1`, the IC50 lay in the range of 25 to 200 nM.

For `CNC(=O)[C@]1(C)CC[C@@H](Nc2ncc3c(Br)nn(-c4cc(Cl)cc(CCS(C)(=O)=O)c4)c3n2)C1`, the IC50 lay within 25 to 200 nM.

Take `CNC(=O)[C@]1(C)CC[C@@H](Nc2ncc3c(Br)nn(-c4cc(Cl)c(F)c(CC#N)c4)c3n2)C1`: the IC50 was in the range of 25 to 200 nM.

Turning to `CNC(=O)[C@]1(C)CC[C@@H](Nc2ncc3c(Br)nn(-c4cc(C#N)cc(CC#N)c4)c3n2)C1`, the IC50 lay in the range of 25 to 200 nM.

Consider `CNC(=O)[C@]1(C)CC[C@@H](Nc2ncc3c(Br)nn(-c4cc(C#N)cc(CNS(C)(=O)=O)c4)c3n2)C1`, for which the IC50 is 25 to 200 nM.

Consider `CNC(=O)[C@]1(C)CC[C@@H](Nc2ncc3c(Br)nn(-c4cc(C#N)cc(CS(C)(=O)=O)c4)c3n2)C1`, for which the IC50 is 25 to 200 nM.

`CCc1cc(-n2nc(Br)c3cnc(N[C@@H]4CC[C@@](C)(C(=O)NC)C4)nc32)ccc1-c1nnc(C)s1`: the IC50 fell in the range of 25 to 200 nM.

Consider `CNC(=O)[C@]1(C)CC[C@@H](Nc2ncc3c(Br)nn(-c4ccc(-c5nnc(C)s5)c(F)c4)c3n2)C1`, for which the IC50 is below 25 nM.

Turning to `CS(=O)(=O)CCNC(=O)[C@@H]1CC[C@@H](Nc2ncc3c(Br)nn(-c4ccc5ncc(F)cc5c4)c3n2)C1`, the IC50 was 200 to 500 nM.

For the compound `CNC(=O)[C@]1(C)CC[C@@H](Nc2ncc3c(Br)nn(-c4ccc(-c5nnc(C(C)(C)O)s5)cc4)c3n2)C1`, the IC50 lay within 25 to 200 nM.

Consider `CNC(=O)[C@]1(CCOC)CC[C@@H](Nc2ncc3c(Br)nn(-c4ccc(-c5nnc(C)s5)cc4)c3n2)C1`, for which the IC50 was in the range of 25 to 200 nM.

On to `O=C(NC1CCS(=O)(=O)CC1)[C@@H]1CC[C@@H](Nc2ncc3c(Br)nn(-c4ccc(-c5cccnc5)cc4)c3n2)C1`, for which the IC50 was in the range of 200 to 500 nM.

With `CNC(=O)[C@]1(C)CC[C@@H](Nc2ncc3c(Br)nn(-c4ccc5c(c4)S(=O)(=O)CC(=O)N5C)c3n2)C1`, the IC50 was 25 to 200 nM.

With `CNC(=O)[C@]1(C)CC[C@@H](Nc2ncc3c(Br)nn(-c4ccc(-c5nnc(C)s5)nc4)c3n2)C1`, the IC50 fell in the range of 25 to 200 nM.

Regarding `CNC(=O)[C@]1(C)CC[C@@H](Nc2ncc3c(Br)nn(-c4cc(CCCO)c5c(c4)CCC(=O)N5C)c3n2)C1`, the IC50 was below 25 nM.

Take `N#Cc1cc(-n2nc(Br)c3cnc(N[C@@H]4CC[C@@H](C(=O)NC5CCC(C#N)C5)C4)nc32)cc2cccnc12` (stereo partly shown): the IC50 lay in the range of 25 to 200 nM.

Consider `N#Cc1cc(-n2nc(Br)c3cnc(N[C@@H]4CC[C@@H](C(=O)NCC5(F)CNC5)C4)nc32)cc2cccnc12`, for which the IC50 is below 25 nM.

In the case of `N#Cc1cc(-n2nc(Br)c3cnc(N[C@@H]4CC[C@@H](C(=O)N=S5(=O)CCNCC5)C4)nc32)cc2cccnc12`, the IC50 lay in the range of 25 to 200 nM.

In the case of `CN1C(=O)CCC1CNC(=O)[C@@H]1CC[C@@H](Nc2ncc3c(Br)nn(-c4cc(C#N)c5ncccc5c4)c3n2)C1` (stereo partly shown), the IC50 is below 25 nM.

On to `O=C(NCC(F)(F)CO)[C@@H]1CC[C@@H](Nc2ncc3c(Br)nn(-c4cc(F)c5ncccc5c4)c3n2)C1`, for which the IC50 lay within 25 to 200 nM.

`O=C(NC[C@H]1COCCN1)[C@@H]1CC[C@@H](Nc2ncc3c(Br)nn(-c4cc(F)c5ncccc5c4)c3n2)C1`: the IC50 lay in the range of 25 to 200 nM.

On to `CC(C)(O)CNC(=O)[C@@H]1CC[C@@H](Nc2ncc3c(Br)nn(-c4cc(F)c5ncccc5c4)c3n2)C1`, for which the IC50 was 25 to 200 nM.

`O=C(N[C@H]1C[C@H](O)C1)[C@@H]1CC[C@@H](Nc2ncc3c(Br)nn(-c4cc(F)c5ncccc5c4)c3n2)C1`: the IC50 was in the range of 25 to 200 nM.

Consider `CNC(=O)[C@]1(C)CC[C@@H](Nc2ncc3c(Br)nn(-c4cc(N5CCNCC5)c5ncccc5c4)c3n2)C1`, for which the IC50 lay within 25 to 200 nM.

Consider `C[C@]1(NC(=O)[C@@H]2CC[C@@H](Nc3ncc4c(Br)nn(-c5ccc6ncccc6c5)c4n3)C2)C[C@H](O)C1`, for which the IC50 lay in the range of 25 to 200 nM.

On to `O=C(N[C@H]1CC[C@@](O)(C(F)(F)F)CC1)[C@@H]1CC[C@@H](Nc2ncc3c(Br)nn(-c4ccc5ncccc5c4)c3n2)C1`, for which the IC50 is 25 to 200 nM.

As to `O=C(N[C@H]1CC[C@](O)(C(F)(F)F)CC1)[C@@H]1CC[C@@H](Nc2ncc3c(Br)nn(-c4ccc5ncccc5c4)c3n2)C1`, the IC50 is 500 to 1000 nM.

Turning to `O=C(NC1CCS(=O)(=O)CC1)[C@@H]1CC[C@@H](Nc2ncc3c(Br)nn(-c4ccc5ncccc5c4)c3n2)C1`, the IC50 was in the range of 25 to 200 nM.

Consider `CC(C)(CN1CCCC1)NC(=O)[C@@H]1CC[C@@H](Nc2ncc3c(Br)nn(-c4ccc5ncccc5c4)c3n2)C1`, for which the IC50 was 25 to 200 nM.

With `CNC(=O)[C@]1(C)CC[C@@H](Nc2ncc3c(Br)nn(-c4ccc5cncnc5c4)c3n2)C1`, the IC50 lay in the range of 25 to 200 nM.

`CC(C)(NC(=O)[C@@H]1CC[C@@H](Nc2ncc3c(Br)nn(-c4cc(C#N)c5ncccc5c4)c3n2)C1)C(N)=O`: the IC50 is below 25 nM.

Consider `CC1(C(=O)NC2CCOCC2)CC(Nc2ncc3c(Br)nn(-c4ccc5ncccc5c4)c3n2)C1` (stereo not shown), for which the IC50 was in the range of 25 to 200 nM.

For the compound `CNC(=O)[C@H]1C[C@H](Nc2ncc3c(Br)nn(-c4cc(F)c5ncccc5c4)c3n2)C1`, the IC50 lay within 200 to 500 nM.

Take `C[C@]1(C(=O)O)C[C@H](Nc2ncc3c(Br)nn(-c4ccc5ncccc5c4)c3n2)C1`: the IC50 lay in the range of 200 to 500 nM.

`C[C@]1(C(=O)N[C@@H]2CCOC2)C[C@H](Nc2ncc3c(Br)nn(-c4ccc5ncccc5c4)c3n2)C1`: the IC50 lay within 25 to 200 nM.

With `Cc1nnc(-c2ccc(-n3nc(Br)c4cnc(N[C@@H]5CC[C@@H](NC(=O)[C@H]6CCCCN6)C5)nc43)cc2)s1`, the IC50 was 25 to 200 nM.

Regarding `Cc1nnc(-c2ccc(-n3nc(Br)c4cnc(N[C@@H]5CC[C@@H](NC(=O)[C@@H]6CCCCN6)C5)nc43)cc2)s1`, the IC50 fell in the range of 25 to 200 nM.

For `CNC(=O)C1(C(C)C#N)CC[C@@H](Nc2ncc3c(Br)nn(-c4ccc(-c5nnc(C)s5)c(CCC#N)c4)c3n2)C1` (stereo partly shown), the IC50 lay in the range of 25 to 200 nM.

`CNC(=O)C1(CCS(C)(=O)=O)CC[C@@H](Nc2ncc3c(Br)nn(-c4ccc(-c5nnc(C)s5)c(CCC#N)c4)c3n2)C1` (stereo partly shown): the IC50 lay in the range of 25 to 200 nM.

In the case of `CNC(=O)C1(CC#N)CC[C@@H](Nc2ncc3c(Br)nn(-c4ccc(-c5nnc(C)s5)c(CCC#N)c4)c3n2)C1` (stereo partly shown), the IC50 is 25 to 200 nM.

As to `CNC(=O)C1(C)CC[C@@H](Nc2ncc3c(Br)nn(-c4cc(CO)cc(C(C)(C)C)c4)c3n2)C1` (stereo partly shown), the IC50 lay in the range of 25 to 200 nM.

Consider `CNC(=O)C1(CC#N)CC[C@@H](Nc2ncc3c(Br)nn(-c4ccc(-c5nnc(C)s5)cc4)c3n2)C1` (stereo partly shown), for which the IC50 was in the range of 25 to 200 nM.

`CNC(=O)C1(C(C)C#N)CC[C@@H](Nc2ncc3c(Br)nn(-c4ccc(-c5nnc(C)s5)cc4)c3n2)C1` (stereo partly shown): the IC50 is 25 to 200 nM.

As to `Cc1nnc(-c2ccc(-n3nc(Br)c4cnc(N[C@@H]5CCC(S(=O)(=O)NCCC#N)C5)nc43)cc2)s1` (stereo partly shown), the IC50 fell in the range of 25 to 200 nM.

With `CN(CC1(C)COC1)C(=O)C1(C)CC[C@@H](Nc2ncc3c(Br)nn(-c4cc(F)c5ncccc5c4)c3n2)C1` (stereo partly shown), the IC50 is below 25 nM.

On to `Cc1nnc(-c2ccc(-n3nc(Br)c4cnc(N[C@@H]5CC[C@@]6(CCNC6=O)C5)nc43)cc2)s1`, for which the IC50 lay within 25 to 200 nM.

Turning to `Cc1nnc(-c2ccc(-n3nc(Br)c4cnc(N[C@@H]5CC[C@]6(CCNC6=O)C5)nc43)cc2)s1`, the IC50 lay in the range of 25 to 200 nM.

On to `C[C@@]1(C(=O)N2CCN3C(=O)CC[C@@H]3C2)CC[C@@H](Nc2ncc3c(Br)nn(-c4cc(F)c5ncccc5c4)c3n2)C1`, for which the IC50 is 25 to 200 nM.
